By ED50 is commonly meant the midpoint of the dose-response relation. One may read the inhibition in vivo as the percentage by which the read-out fell short of the control. The LD50 is the dose expected to kill half of the subjects tested.

Here are results for 9 compounds from ChEMBL document CHEMBL6103647, “Analgesic Grayanane-Derived Diterpenoids from the Flowers of Rhododendron molle” (J Nat Prod, 2025).

A short description of series [1]: Therapeutic index, ratio of LD50 for toxicity in ip dosed Kunming mouse assessed as lethal dose to ED50 for analgesic activity against acetic acid-induced Kunming writhing mouse model assessed as effective dose. The format is organism-based. The conditions noted are these: in vivo, read-out: TI. In general terms: Writhing tests count abdominal constrictions after an irritant is injected.

The subject of series [2] is Mus musculus. In words: Analgesic activity against acetic acid-induced ip dosed Kunming writhing mouse model assessed as effective dose pre-incubated for 15 mins followed by acetic acid addition and measured after 15 mins. The format is functional. To be noted: 0.25 h.
Series [3] relates to Mus musculus. The experiment in a line: Analgesic activity against acetic acid-induced Kunming writhing mouse model assessed as inhibition of writhing at 0.2 mg/kg, ip pre-incubated for 15 mins followed by acetic acid addition and measured after 15 mins relative to control. The class given is functional. The conditions noted are these: 0.25 h.
Series [4] concerns Mus musculus. In words: Analgesic activity against acetic acid-induced Kunming writhing mouse model assessed as inhibition of writhing at 5 mg/kg, ip pre-incubated for 15 mins followed by acetic acid addition and measured after 15 mins relative to control. The class given is functional. The conditions noted are these: 0.25 h.
Series [5] concerns Mus musculus. The experiment in a line: Analgesic activity against acetic acid-induced Kunming writhing mouse model assessed as inhibition of writhing at 1 mg/kg, ip pre-incubated for 15 mins followed by acetic acid addition and measured after 15 mins relative to control. The class given is functional. To be noted: 0.25 h.
Series [6] is described as follows: Toxicity in Kunming mouse at 5 mg/kg, ip administered for 15 mins. To be noted: in vivo, 0.25 h. The format is organism-based.
Series [7] can be described thus: Toxicity in ip dosed Kunming mouse assessed as lethal dose. To be noted: in vivo. The format is organism-based.

Regarding `CC1(C)[C@@H](O)[C@H](O)[C@H]2[C@](C)(O)[C@@H]3CC[C@@H]4[C@@H](O)[C@@]3(C[C@@H](O)[C@@]21O)C[C@@]4(C)O`, in series [1], the selectivity ratio came out at 24.5. For the same compound, the median effective dose (ED50) in the series on Mus musculus [2] is 0.073 mg/kg.

Consider `CC1(C)[C@@H](O)[C@H](OC(=O)c2ccco2)[C@H]2[C@](C)(O)[C@@H]3CC[C@@H]4[C@@H](O)[C@@]3(C[C@@H](O)[C@@]21O)C[C@@]4(C)O`, for which the inhibition in vivo at 0.2 mg/kg with Mus musculus [3] came to 71.5%. Besides, the inhibition in vivo at 5 mg/kg in the series with Mus musculus [4] is 74.1%. Besides, in the series with Mus musculus [5], the inhibition in vivo at 1 mg/kg stood at 50%.

Consider `CC1=C2CC[C@@H]3[C@@H](O)[C@@]2(C[C@H]2O[C@@H](c4ccc(O)cc4)O[C@@]24C1[C@@H](O)[C@H](O)C4(C)C)C[C@@]3(C)O` (stereo not given in full), for which the inhibition in vivo at 5 mg/kg in the series on Mus musculus [4] worked out at 74.1%. Moreover, the inhibition in vivo at 1 mg/kg in the series on Mus musculus [5] is 50%.

`CC1(C)[C@@H](O)[C@H](OC(=O)c2cccnc2)[C@H]2[C@](C)(O)[C@@H]3CC[C@@H]4[C@@H](O)[C@@]3(C[C@@H](O)[C@@]21O)C[C@@]4(C)O`: the Activity result in series [6] is given as “Toxic”. Further, the inhibition in vivo at 1 mg/kg in the series on Mus musculus [5] was 50%.

As to `CC1(C)[C@@H](O)[C@H](OC(=O)[C@@]2(O)C[C@@H](O)[C@H](O)[C@H](OC(=O)/C=C/c3ccc(O)cc3)C2)[C@H]2[C@](C)(O)[C@@H]3CC[C@@H]4[C@@H](O)[C@@]3(C[C@@H](O)[C@@]21O)C[C@@]4(C)O`, in series [1], the selectivity ratio was 1770. Besides, in series [7], the 50% lethal dose (LD50) stood at 131 mg/kg. Moreover, the inhibition in vivo at 0.2 mg/kg in the series with Mus musculus [3] was 77.2%. Moreover, in the series on Mus musculus [2], the ED50 was found to be 0.074 mg/kg. Further, the inhibition in vivo at 5 mg/kg with Mus musculus [4] amounted to 74.1%. Moreover, in the series on Mus musculus [5], the inhibition in vivo at 1 mg/kg came out at 50%.

On to `CC1(C)[C@@H](O)[C@@H]2O[C@@H]3[C@H]4CC[C@H]5[C@@](C)(O)[C@@H]6[C@@H](O[C@@H]7[C@H]8CC[C@H]9[C@@](C)(O)[C@H]2[C@]1(O)[C@H](O)C[C@@]79C[C@@]8(C)O)[C@H](O)C(C)(C)[C@@]6(O)[C@H](O)C[C@@]35C[C@@]4(C)O`, for which the inhibition in vivo at 5 mg/kg in the series on Mus musculus [4] amounted to 74.1%. For the same compound, in the series with Mus musculus [5], the inhibition in vivo at 1 mg/kg came out at 50%.

Take `CC(=O)O[C@@H]1C[C@]23C[C@@](C)(O)[C@@H]4CC[C@H]2[C@@](C)(O)[C@@H]2[C@@H](O[C@@H]5[C@H]6CC[C@H]7[C@@](C)(O)[C@@H]8[C@@H](O[C@H]43)[C@H](O)C(C)(C)[C@@]8(O)[C@H](OC(C)=O)C[C@@]57C[C@@]6(C)O)[C@H](O)C(C)(C)[C@@]12O`: the inhibition in vivo at 5 mg/kg in the series on Mus musculus [4] was determined as 74.1%.

Turning to `CC1=C2CC[C@@H]3[C@@H](O)[C@@]2(C[C@@H](O)[C@@]2(O)[C@H]1[C@@H](Cl)[C@H](O)C2(C)C)C[C@@]3(C)O`, the inhibition in vivo at 1 mg/kg in the series on Mus musculus [5] is 50%.

Consider `CN1CC[C@]23c4c5ccc(O)c4O[C@H]2[C@@H](O)C=C[C@H]3[C@H]1C5` [MORPHINE], for which the inhibition in vivo at 0.2 mg/kg with Mus musculus [3] stood at 39.4%.
